Test results taken from patent US20110070171A1, “1-tert-Butylcyclohexanecarboxamide and uses thereof as cooling compounds” (priority 2009, published 2011).

Key:
Type in all cases: in vivo
[1] = Flavor evaluation, tasted in water; settings: tasted in water at 10 ppm
Text: Based on this flavor evaluation, it is indicative that the Structure I and Structure II of our invention are useful for augmenting, enhancing or imparting a taste or cooling or refreshing effect in or to a cosmetic, skin care product, lip gloss, hair care product, cologne, shaving balm, after-shave lotion, dairy product, fruit ice preparation, confectionery, mouth and throat lozenges, cough mixtures, decongestants, antacids, oral analgesics or other medicinal products, chewing gum, candy (including hard candy and soft candy), fondants, toothpaste, mouthwashes, mineral water, alcoholic beverage, non-alcoholic beverage, powdered beverage, or other foodstuff as a result of adding to a cosmetic, skin care product, lip gloss, hair care product, cologne, shaving balm, after-shave lotion, dairy product, fruit ice preparation, confectionery, lozenges, cough mixtures, decongestants, antacids, oral analgesics or other medicinal product, chewing gum, candy, fondants, toothpaste, mouthwashes, mineral water, alcoholic beverage, non-alcoholic beverage, powdered beverage, or other foodstuff, a taste or cooling or refreshing effect augmenting, enhancing or imparting quantity and concentration of Structure I and Structure II.

[2] = Evaluation of cooler mixed with fondant
Text: In this example, the Structure I and II were mixed with a fondant, commercially available from Confectionary House, Troy, N.Y., at levels listed in Table 1.

[3] = Chewing gum profiled by trained descriptive analysis panel; settings: level 0.20%
Protocol: The following gum base formulation was prepared: […]
The orange flavor is commercially available from IFF. The gum base, Hades-T is commercially available from Cafosa Gum, Barcelona Spain.
Structure I and II by itself at levels detailed in the Tables below was blended with the gum base in a Sigma mixer. The resultant chewing gum blend was then manufactured into strips 1 inch in width and 0.1 inches in thickness. These strips were cut into lengths of 3 inches each.
Samples were profiled by a highly trained descriptive analysis panel. The ballot consisted of the following terms: Total impact, total mint, cooling-mouth closed, cooling-breath in, nasal cooling—breathe in, throat irritation, bitterness, tongue irritation, numbing. Each attribute was rated at discrete time points including 1 minute, 3 minutes, 5 minutes, 10 minutes, 20 minutes, and 30 minutes.

| Structure (SMILES) | Taste description (cooling) [1] | COMMENTS (cooling evaluation in fondant) ([2]; 50 ppm) | COMMENTS (cooling evaluation in fondant) ([2]; 200 ppm) | Time and Evaluation (cooling in chewing gum) ([3]; 0-1 min) | Time and Evaluation (cooling in chewing gum) ([3]; 1-3 min) | Time and Evaluation (cooling in chewing gum) ([3]; 3-5 min) | Time and Evaluation (cooling in chewing gum) ([3]; 5-10 min) | Time and Evaluation (cooling in chewing gum) ([3]; 10-20 min) | Time and Evaluation (cooling in chewing gum) ([3]; 20-30 min) |
| --- | --- | --- | --- | --- | --- | --- | --- | --- | --- |
| CC(C)(C)C1(C(=O)NC2CC2)CCCCC1 [Structure I, 1-tert-butyl-N-cyclopropylcyclohexanecarboxamide] | gradual onset cooling | Slight irritation in rear of throat, slight cooling | Moderate cooling, consistent, and slight tingle. |  |  |  |  |  |  |
| COCCNC(=O)C1(C(C)(C)C)CCCCC1 [Structure II, 1-tert-butyl-N-[2-methoxy-ethyl]cyclohexanecarboxamide] | wet cardboard, slightly cooling | Slight bitterness, very little cooling. | Good Cooling low to moderate, slight throat | no perceivable cooling slightly bitter, | Slight cooling with slight tingle on tongue | full mouth cooling not very intense, slight | slight residual cooling very weak | still slight cooling, slight tingle | cooling diminished very weak, very mild |
